Measured values from publication PMC5352783, “Characterization and cytotoxic effect of aqua-(2,2′,2′′-nitrilotriacetato)-oxo-vanadium salts on human osteosarcoma cells” (Biometals, 2017).
Where two headings read alike, the source gives them in different places. Marks after values point to notes of the source that are not given here.

Assays:
[1] = system: animal and human cancer cell lines; set-up: method as in earlier work; conditions: ref Havelek et al. [2012]; Vinklarek et al. [2004]; Gleeson et al. [2009]; Palackova et al. [2007]; cited from earlier work
[2] = at 25 °C; cited from earlier work
[3] = system: streptozotocin-induced (STZ) diabetic rats; set-up: method as in Thompson and Orvig [2006]; conditions: oral, ref Thompson and Orvig [2006]; cited from earlier work
[4] = system: tumoral cell lines of human origin; set-up: method as in Evangelou [2002]; D’Cruz and Uckun [2002]; Dong et al. [2000]; conditions: leukemia, breast, ovarian, prostate and testicular cancer cells; ref Evangelou [2002]; D’Cruz and Uckun [2002]; Dong et al. [2000]; cited from earlier work
[5] = Potentiometric titration, equilibrium constants of complex species in aqueous solution; format: physicochemical; conditions: for Logarithm of equilibrium constant, reaction 1: A + H3O^+ ⇋ AH^+ + H2O (AH^+ = bpyH^+ or phenH^+) / Logarithm of equilibrium constant, reaction 2 ([drawing 1]) / Logarithm of equilibrium constant, reaction 3 ([drawing 2]): 298.15 K, ionic strength 0.1 M NaClO4, standard deviation in parentheses
Protocol: Potentiometric titrations were performed at 298.15 K by using Cerko Lab System microtitration unit fitted with 5‐mL Hamilton’s syringe and pH‐combined electrode (Schott‐BlueLine 16 pH type) All details for the measuring devices and the experimental setup were described in (Wyrzykowski et al. [2014]). The ionic strength was maintained at 0.1 M using NaClO4. The 6 mM [bpyH][VO(nta)(H2O)]H2O and [phenH][VO(nta)(H2O)](H2O)0.5 solutions (Vo = 5.0 mL) were potentiometrically titrated with a standardized NaOH solution (0.098 M). The concentration distribution of various complex species existing in the solution as a function of pH was obtained using the HySS program (Alderighi et al. [1999]).
The potentiometric titration method has been applied for studying the stability of [bpyH][VO(nta)(H2O)]H2O and [phenH][VO(nta)(H2O)](H2O)0.5 in aqueous solutions. The logarithm of the overall equilibrium constants of the complex species (Table 5) were refined by least-squares calculations using the Hyperquad2008 (ver. 5.2.19) computer program (Gans et al. [1996]).

[6] = system: UMR106 derived from rat osteosarcoma cells; conditions: cited from earlier work; for Cytotoxicity, normal versus tumoral osteoblasts: MC3T3E1 (normal) versus UMR106 (tumoral); for Cellular proliferation: UMR106
DNA = conditions: comparison of the three VO-oda compounds; cited from earlier work
[7] = system: MC3T3E1 derived from mouse calvaria; conditions: cited from earlier work
[8] = system: human osteosarcoma cell (HOS); assay: BrdU test, cell proliferation; format: cell-based; conditions: 48 h
Protocol: (§1) The cell lines: two human osteosarcoma cell lines (MG-63 and HOS) and untransformed hFOB were used to assess an anti-proliferative and cytotoxic effect, respectively. hFOB cells were grown in a mixture of Dulbecco’s Modified Eagle’s Medium and Ham F12 medium (1:1 ratio), MG-63 and HOS in Eagle’s Minimum Essential Medium also containing sodium pyruvate 110 mg/L and supplemented with 10% fetal bovine serum, 6 μg/mL penicillin-G, and 10 μg/mL streptomycin.
(§2) Cultured cancer cells with 80–90% confluence were used for plating. The adherent cells were trypsinized to detach cells. 100 µL of cells were seeded into each well of the 96-wells plates (1–5 × 10^4 cells per well). The plate was maintained at 37 °C in a incubator for 48 h until 80–90% confluence. Then, old media were discarded and the cells were treated with tested compounds and cisplatin as positive control. The concentrations of investigated compounds used in experiments were carefully selected according to the results obtained from a preliminary concentration–response study (data not shown). […] Fresh solutions of cisplatin were made up for each experiment owing to its instability in water. […]
Fig. 9 The inhibition of the human osteosarcoma cell (HOS) proliferation after an incubation with investigated compounds assessed with the BrdU-test. […] Data are expressed as mean values ± SD from three experiments. ***p < 0.001 versus control

[9] = system: human osteosarcoma cell (MG-63); assay: BrdU test, cell proliferation; format: cell-based; conditions: 48 h
Protocol: as §1, §2
Fig. 8 The inhibition of the human osteosarcoma cell (MG-63) proliferation after an incubation with investigated compounds assessed with the BrdU-test. […] Data are expressed as mean values ± SD from three experiments. ***p < 0.001 versus control

human osteosarcoma cells = system: human osteosarcoma cells; set-up: method as in Yodoshi et al. [2007]; conditions: rank among the three VO-oda compounds; ref Yodoshi et al. [2007]; cited from earlier work

## [Cl-].[Cl-].[V+4].c1cc[cH-]c1.c1cc[cH-]c1 [[VCp2Cl2], bis(cyclopentadienyl) dichloro-V(IV)]
[1]
  In vitro activity against cancer cell lines: high in vitro activity

## cis-Pt(NH3)2Cl2 [cisplatin]
[2]
  water solubility: 0.253 g/100 mL

## CCc1occc(=O)c1[O][V](=[O])[O]c1c(CC)occc1=O [BEOV, VO(Etmaltolato)2]
[3]
  Effect on plasma glucose levels: lower plasma glucose levels

## Cc1ccnc2c1ccc1c(C)ccnc12.Cc1ccnc2c1ccc1c(C)ccnc12.O=S(=O)([O-])[O-].[O]=[V+2] [Metvan]
[4]
  Apoptosis: induces apoptosis

## 2,2′-bipyridinium aqua-(2,2′,2′′-nitrilotriacetato)-oxo-vanadium monohydrate [[bpyH][VO(nta)(H2O)]H2O]
[5]
  Logarithm of equilibrium constant, reaction 1: A + H3O^+ ⇋ AH^+ + H2O (AH^+ = bpyH^+ or phenH^+): 4.47 (0.03)^a
  Logarithm of equilibrium constant, reaction 2 ([drawing 1]): 7.80 (0.06)
  Logarithm of equilibrium constant, reaction 3 ([drawing 2]): −19.94 (0.06)

## O=C([O-])COCC(=O)[O-].[O]=[V+2] [VO(oda)]
[6]; ref Rivadeneira et al. [2010]
  Cytotoxicity, normal versus tumoral osteoblasts: stronger in the normal (MC3T3E1) than in the tumoral (UMR106) osteoblasts
  Cellular proliferation: inhibition of a cellular proliferation
DNA
  DNA cleavage (nuclease activity): similar
[7]; ref Rivadeneira et al. [2010]
  Cellular proliferation: inhibition of a cellular proliferation

## O=C([O-])COCC(=O)[O-].[O]=[V+2].c1ccc(-c2ccccn2)nc1 [VO(oda)(bpy)]
[6]; ref León et al. [2012b]
  Cytotoxicity, normal versus tumoral osteoblasts: statistically stronger in the tumoral cells
DNA
  DNA cleavage (nuclease activity): similar

## Cc1occc(=O)c1[O-].Cc1occc(=O)c1[O-].[O]=[V+2] [BMOV, VO(maltolato)2]
[3]
  Effect on plasma glucose levels: lower plasma glucose levels

## O.O=C([O-])CN(CC(=O)[O-])CC(=O)[O-].[O]=[V+2] [[VO(nta)(H2O)]^−]
[5]; aqueous solution, species distribution from the equilibrium constants
  pH up to which the aqua complex is stable: ≤ 5

## O.O=C([O-])CN(CC(=O)[O-])CC(=O)[O-].[O]=[V+2].c1cnc2c(c1)ccc1ccc[nH+]c12 [[phenH][VO(nta)(H2O)](H2O)0.5]
[5]
  Logarithm of equilibrium constant, reaction 1: A + H3O^+ ⇋ AH^+ + H2O (AH^+ = bpyH^+ or phenH^+): 5.00 (0.04)^a
  Logarithm of equilibrium constant, reaction 2 ([drawing 1]): 7.93 (0.07)
  Logarithm of equilibrium constant, reaction 3 ([drawing 2]): −19.91 (0.08)
[8]; 1-100 μM
  Anti-proliferative activity (BrdU incorporation): most effective anti-proliferative activity
[8]; BrdU test
  Anti-proliferative activity compared with cis-Pt(NH3)2Cl2: significantly higher
[9]; 1-100 μM
  Anti-proliferative activity (BrdU incorporation): most effective anti-proliferative activity
[9]; BrdU test
  Anti-proliferative activity compared with cis-Pt(NH3)2Cl2: significantly higher

## O=C([O-])COCC(=O)[O-].[O]=[V+2].c1cnc2c(c1)ccc1cccnc12 [VO(oda)(phen)]
[6]; ref León et al. [2012b]
  Cytotoxicity, normal versus tumoral osteoblasts: stronger in the normal than in the tumoral osteoblasts
  Cellular proliferation: inhibition of the cellular proliferation
Human osteosarcoma cells
  Antitumor action: most potent antitumor action
DNA
  DNA cleavage (nuclease activity): stronger effect
[7]; ref León et al. [2012b]
  Cellular proliferation: inhibition of the cellular proliferation
